Consider 20 compounds from US4613603A, “Compounds with a nitrogen-containing heterocyclic nucleus, and drugs in which they are present” (Sanofi, priority 1984, dated 1986).

Counter-ions that a name gives are not always drawn. Like-named read-outs stand apart in the source and are kept apart here.

Series [1] deals with contortional movements caused by the administration of acetic acid. The series is described as follows: Analgesic activity, KOSTER test (acetic acid contortions). The class given is in vivo. As to conditions: mice, 25 mg/kg administered orally 30 minutes before i.p. acetic acid. The method, then: The analgesic activity of the products according to the invention was evaluated using the KOSTER test (Federation Proceeding 18, 41 (1959)).
The products were administered orally to mice 30 minutes before the intraperitoneal injection of 0.25 ml of 0.1N acetic acid dissolved in 10% gum arabic. The contortions between the fifth and tenth minute and between the fifteenth and twentieth minute after administration of the acid were counted for the control animals and the treated animals.

Series [2] is described as follows: Determination of the lethal dose in mice after acute administration. The note with it: mouse, in vivo, po, administered orally, read-out: Percent toxicity (percentage of animals which die within 72 hours). The method, then: The products were administered orally to groups of 5 female CDI Charles River mice weighing between 20 and 24 g. They were solubilized in 0.1N HCl. The toxicity was recorded for 72 hours following the administration of the products.
The results, expressed as the percentage of animals which die within 72 hours following oral administration of the products, are given in the table above.

For another series, the system named is bicuculline. The series is described as follows: Antagonism towards the convulsions and the mortality caused by bicuculline. The class given is in vivo, mice. As to conditions: Mus musculus, po, 1 h. The method, then:
(§1) The anticonvulsant effect of the products on mice was evaluated on a model involving convulsions caused by an electric shock and on a model involving convulsions induced by a chemical agent: bicuculline.
The groups consisted of 10 CDI Charles River mice weighing between 20 and 22 g. The products were administered orally 60 minutes before the bicuculline (0.8 mg/kg, administered intravenously).

For series [3], the system named is convulsions induced by an electric shock. Kind of series: Antagonism towards the convulsions induced by an electric shock. As to conditions: Mus musculus, po, 1 h; mice, administered orally 60 minutes before the electric shock; confidence limits in brackets (p ≤ 0.05); read-out: Median effective dose (ED50) for antagonism towards electric shock. The class given is in vivo. The method, then:
as §1
The test was a slightly modified version of that of SWINYARD et al. [Journal of Pharmacology and Experimental Therapeutics 106, 319-330 (1952)] and ASAMI et al. [Arzneimittel Forschung 24(10), 1563-1568 (1974)]. The equipment consisted of a Racia shock generator fitted with 2 ocular electrodes delivering a current at 12.5 volts for 0.3 second. The groups consisted of 10 CDI Charles River mice weighing between 20 and 24 g.
The products were administered orally 60 minutes before the electric shock.

The subject of series [4] is mortality following the injection of collagen. Kind of series: Antithrombotic activity, mortality following the injection of collagen. In kind it is in vivo. The note with it: mice, 200 mg/kg, administered orally.
[5] abbreviates: read-out: Median effective dose (ED50) for antagonism towards bicuculline, Mortality.
Where [6] appears, read: read-out: Median effective dose (ED50) for antagonism towards bicuculline, Tonic convulsions.

With `OC1CCN(c2ccc(-c3ccccc3Cl)cn2)CC1` [SR 42 482, 5-(2-Chlorophenyl)-2-(4-hydroxypiperidino)-pyridine acid maleate], the “Antagonism towards the contortional movements (percent/control animals)” value in series [1] was -50%. The mortality at 72 h in series [2] (250 mg/kg), in series [2] (500 mg/kg) and in series [2] (1000 mg/kg) was 0% throughout.

Regarding `OC1CCN(c2ncc(-c3ccccc3Cl)cn2)CC1` [SR 42 505, 5-(2-Chlorophenyl)-2-(4-hydroxypiperidino)pyrimidine], the “Antagonism towards the contortional movements (percent/control animals)” value in series [1] is listed as -36%. Also, the figures for the mortality at 72 h in series [2] (250 mg/kg), in series [2] (500 mg/kg) and in series [2] (1000 mg/kg) were 0%, 0% and 80%, respectively. Moreover, the ED50 amounted to 54 mg/kg in the series with bicuculline (setting [5]), 52 mg/kg in the series on bicuculline (setting [6]) and 42 mg/kg in series [3].

Turning to `OC1CCN(c2ncc(-c3ccccc3Cl)nn2)CC1` [SR 42 524, 6-(2-Chlorophenyl)-3-(4-hydroxypiperidino)-1,2,4-triazine], the mortality at 72 h in series [2] (250 mg/kg), in series [2] (500 mg/kg) and in series [2] (1000 mg/kg) was 0% in each case. Also, the values for the median effective dose (ED50) (in the series with bicuculline (setting [5]); with bicuculline (setting [6]); in series [3]) were 72 mg/kg, 71 mg/kg and 24 mg/kg, respectively. Besides, the “Protection from mortality following the injection of collagen” value in series [4] was “protected mice from mortality following the injection of collagen”.

With `O=C1CCN(c2ncc(-c3ccccc3Cl)nn2)CC1` [SR 42 642, 6-(2-Chlorophenyl)-3-(4-oxopiperidino)-1,2,4-triazine], the mortality at 72 h in series [2] (250 mg/kg) and in series [2] (500 mg/kg) was 0% in each case. For the same compound, the ED50 in series [3] stood at 40 mg/kg.

As for `O=C1CCN(c2ccc(-c3ccccc3Cl)cn2)CC1` [SR 42 696, 5-(2-Chlorophenyl)-2-(4-oxopiperidino)pyridine acid maleate], the mortality at 72 h in series [2] (250 mg/kg) and in series [2] (500 mg/kg) was 0% throughout.

In the case of `OC1CCN(c2ncc(-c3ccc(Cl)cc3Cl)cn2)CC1` [SR 42 824, 5-(2,4-dichlorophenyl)-2-(4-hydroxypiperidino)pyrimidine], the “Antagonism towards the contortional movements (percent/control animals)” value in series [1] is -80%. Also, the mortality at 72 h in series [2] (250 mg/kg) and in series [2] (500 mg/kg) was 0% each time. Besides, the ED50 in the series on bicuculline (setting [5]) turned out to be 8 mg/kg; in the series with bicuculline (setting [6]), 9.4 mg/kg; in series [3] it was 20 mg/kg.

For the compound `OC1CCN(c2ncc(-c3ccc(Cl)cc3Cl)nn2)CC1` [SR 42 825, 6-(2,4-Dichlorophenyl)-3-(4-hydroxypiperidino)-1,2,4-triazine], the “Antagonism towards the contortional movements (percent/control animals)” value in series [1] is -57%. Also, the values for the mortality at 72 h in series [2] (250 mg/kg), in series [2] (500 mg/kg) and in series [2] (1000 mg/kg) were 20%, 20% and 80%, respectively. The ED50 in the series with bicuculline (setting [5]) worked out at 3.3 mg/kg; with bicuculline (setting [6]) it was 3.1 mg/kg; in series [3], 16 mg/kg.

With `O=C1CCN(c2ncc(-c3ccc(Cl)cc3Cl)nn2)CC1` [SR 42 826, 6-(2,4-Dichlorophenyl)-3-(4-oxopiperidino)-1,2,4-triazine], the “Antagonism towards the contortional movements (percent/control animals)” value in series [1] was -42%. Also, the results for the mortality at 72 h in series [2] (250 mg/kg) and in series [2] (500 mg/kg) were 0% and 20%, respectively. The 50% effective dose (ED50) with bicuculline (setting [5]) stood at 3.4 mg/kg; with bicuculline (setting [6]), 3.2 mg/kg; in series [3], 26 mg/kg.

In the case of `OC1CCN(c2cnc(-c3ccc(Cl)cc3)nn2)CC1` [SR 42 833, 3-(4-Chlorophenyl)-6-(4-hydroxypiperidino)-1,2,4-triazine], the “Antagonism towards the contortional movements (percent/control animals)” value in series [1] is listed as -31%. The mortality at 72 h in series [2] (250 mg/kg) and in series [2] (500 mg/kg) was 0% each time.

Regarding `OC1CCN(c2ccc(-c3ccc(Cl)cc3Cl)cn2)CC1` [SR 42 903, 5-(2,4-Dichlorophenyl)-2-(4-hydroxypiperidino)pyridine], in series [3], the ED50 came to 28 mg/kg.

Regarding `OC1CCN(c2cnc(-c3cccc(Cl)c3)nn2)CC1` [SR 42 904, 3-(3-Chlorophenyl)-6-(4-hydroxypiperidino)-1,2,4-triazine], the mortality at 72 h in series [2] (250 mg/kg) and in series [2] (500 mg/kg) was 0% throughout. Also, in series [3], the median effective dose (ED50) is 59 mg/kg.

`OC1CCN(c2ncc(-c3ccc(Cl)cc3)cn2)CC1` [SR 42 921, 5-(4-chlorophenyl)-2-(4-hydroxypiperidino)pyrimidine]: the mortality at 72 h in series [2] (250 mg/kg) and in series [2] (500 mg/kg) was 0% in each case.

Turning to `OC1CCN(c2ncc(-c3cccc(Cl)c3)cn2)CC1` [SR 42 922, 5-(3-chlorophenyl)-2-(4-hydroxypiperidino)pyrimidine], the mortality at 72 h in series [2] (250 mg/kg), in series [2] (500 mg/kg) and in series [2] (1000 mg/kg) was 0% throughout.

For `OC1CCN(c2ncc(-c3cccc4ccccc34)cn2)CC1` [SR 43 139, 5-(naphthyl-1)-2-(4-hydroxypiperidino)pyrimidine], the mortality at 72 h in series [2] (250 mg/kg), in series [2] (500 mg/kg) and in series [2] (1000 mg/kg) was 0% each time. In addition, the median effective dose (ED50) with bicuculline (setting [5]) is 44 mg/kg; in the series with bicuculline (setting [6]), 46 mg/kg; in series [3] it was 43 mg/kg.

Consider `COc1ccc(-c2cnc(N3CCC(O)CC3)nc2)cc1` [SR 43 159, 5-(4-methoxyphenyl)-2-(4-hydroxypiperidino)pyrimidine], for which the mortality at 72 h in series [2] (250 mg/kg), in series [2] (500 mg/kg) and in series [2] (1000 mg/kg) was 0% throughout. The ED50 amounted to 60 mg/kg in the series with bicuculline (setting [5]), 70 mg/kg with bicuculline (setting [6]) and 83 mg/kg in series [3].

For `O=C(OC1CCN(c2ncc(-c3ccccc3Cl)cn2)CC1)N1CCC(O)CC1` [SR 43 516, 2-[4-(4-hydroxypiperidinocarbonyloxy)piperidino]-5-(2-chlorophenyl)pyrimidine], the mortality at 72 h in series [2] (250 mg/kg), in series [2] (500 mg/kg) and in series [2] (1000 mg/kg) was 0% each time. Moreover, in series [3], the ED50 is 91 mg/kg.

As to `CN(C)C(=O)OC1CCN(c2ncc(-c3ccccc3Cl)cn2)CC1` [SR 43 537, 2-(4-dimethylcarbamoyloxypiperidino)-5-(2-chlorophenyl)pyrimidine], the median effective dose (ED50) stood at 3 mg/kg with bicuculline (setting [5]), 3.3 mg/kg with bicuculline (setting [6]) and 2.5 mg/kg in series [3].

Turning to `CN(C)C(=O)OC1CCN(c2ncc(-c3ccc(Cl)cc3Cl)cn2)CC1` [SR 43 539, 2-(4-Dimethylcarbamoyloxypiperidino)-5-(2,4-dichlorophenyl)pyrimidine], the results for the ED50 (in the series with bicuculline (setting [5]); in the series with bicuculline (setting [6]); in series [3]) were 0.7 mg/kg, 1.1 mg/kg and 2.5 mg/kg, respectively.

For the compound `CNC(=O)OC1CCN(c2ncc(-c3ccccc3Cl)cn2)CC1` [SR 43 543, 2-(4-Methylcarbamoyloxypiperidino)-5-(2-chlorophenyl)pyrimidine], the mortality at 72 h in series [2] (250 mg/kg) was 0%; in series [2] (500 mg/kg), 0%; in series [2] (1000 mg/kg) it was 20%. Besides, the 50% effective dose (ED50) came out at 3.9 mg/kg in the series on bicuculline (setting [5]), 4.3 mg/kg in the series on bicuculline (setting [6]) and 19 mg/kg in series [3].

For `CC(=O)OC1CCN(c2ncc(-c3ccc(Cl)cc3Cl)cn2)CC1` [SR 43 651, 2-(4-Acetoxypiperidino)-5-(2,4-dichlorophenyl)pyrimidine], the 50% effective dose (ED50) in the series on bicuculline (setting [5]) is 15.5 mg/kg; in the series on bicuculline (setting [6]) it was 17.2 mg/kg; in series [3] it was 43 mg/kg.
